Experimental data reported in patent US7803992B2, “Methods and compositions for expressing an herbicide-tolerant polynucleotide” (Pioneer Hi-Bred International, Inc., priority 2005, dated 2010).

Assays:
[1] = test system: Heterozygous GAT-HRA corn; assay: Postemergence herbicide application in greenhouse: fresh shoot weight and visual injury; type: in vivo; details: for pest or weed control at 200 g/ha: Zea mays, post-emergence, read-out: % Visual Injury; for Fresh Weight: weighed 2 weeks after treatment, untreated 98.8 g
STS ® soybeans = assay: Postemergence herbicide treatment of soybeans in greenhouse, visual injury; type: in vivo, soybean
From the text: When possible, containers were thinned to two uniform plants.

[2] = test system: parent elite stiff stalk inbred corn; assay: Preemergence herbicide application in greenhouse: fresh shoot weight and visual injury; type: in vivo; details: for pest or weed control at 200 g/ha: Zea mays, pre-emergence, 672 h, read-out: % Visual Injury; for Fresh Weight: fresh shoots weighed 4 weeks after treatment, untreated 36.7 g
[3] = test system: Wild Type soybeans (Jack); assay: Postemergence herbicide treatment of soybeans in greenhouse, visual injury; type: in vivo, soybean; details: for % Visual Injury: postemergence, glyphosate 8960, tribenuron-methyl 35, rimsulfuron 35 g/ha
Method: (§1) Young regenerated transgenic plants were sprayed with 1× glyphosate (1× rate of glyphosate is 1120 g/ha of glyphosate isopropylamine) to cull segregants. Four replications were performed for each treatment. Plants were then treated with various herbicides, including glyphosate and ALS-inhibitor herbicides.
(§2) Six soybean seeds from each variety to be assayed were planted 1 cm deep in 5.5 (13.97 cm) inch square plastic container of a synthetic growth medium. […] When possible, containers were thinned to two uniform plants. Non-transgenic lines were thinned to two uniform plants per container.
(§3) Results are expressed below in Table 11 as the mean of four replications.

GAT-HRA soybeans = assay: as above; type: in vivo, soybean; details: for % Visual Injury: postemergence, glyphosate 8960, tribenuron-methyl 35, rimsulfuron 35 g/ha
Method: as §1, §2, §3

[4] = test system: parent elite stiff stalk inbred corn; assay: Postemergence herbicide application in greenhouse: fresh shoot weight and visual injury; type: in vivo; details: for pest or weed control at 200 g/ha: Zea mays, post-emergence, read-out: % Visual Injury; for Fresh Weight: weighed 2 weeks after treatment, untreated 76.4 g
[5] = test system: Heterozygous GAT-HRA corn; assay: Preemergence herbicide application in greenhouse: fresh shoot weight and visual injury; type: in vivo; details: for pest or weed control at 200 g/ha: Zea mays, pre-emergence, 672 h, read-out: % Visual Injury; for Fresh Weight: fresh shoots weighed 4 weeks after treatment, untreated 47.0 g
GAT-HRA maize = assay: Evaluation of herbicide tolerance, spray at V2 stage, injury symptoms after 10-14 days; type: in vivo; details: postemergence; tribenuron (Express) 200, chlorimuron (Classic) 200, imazapyr (Arsenal) 200, metsulfuron-methyl (Ally) 35 g ai/ha
Method: GAT-HRA maize plants were evaluated for tolerance to glyphosate and other herbicides. One protocol used in this evaluation was as follows. At the V2 stage (Ritchie and Hanway (1982), “How a corn plant develops” Spec. Rep. 48. (Coop. Ext. Ser., Iowa State Univ., Ames, Iowa)), plant heights were measured and herbicides were applied by spray application. Ten to fourteen days after the spray application, the transgenic plants were evaluated for injury symptoms and measured for plant height again in order to determine plant growth rates.
Plants were then evaluated at various times after treatment, such as 10 or 14 days after treatment.

control maize = assay: as above; type: in vivo; details: postemergence; tribenuron (Express) 200, chlorimuron (Classic) 200, imazapyr (Arsenal) 200, metsulfuron-methyl (Ally) 35 g ai/ha
Method: At the V2 stage (Ritchie and Hanway (1982), “How a corn plant develops” Spec. Rep. 48. (Coop. Ext. Ser., Iowa State Univ., Ames, Iowa)), plant heights were measured and herbicides were applied by spray application. Ten to fourteen days after the spray application, the transgenic plants were evaluated for injury symptoms and measured for plant height again in order to determine plant growth rates.

[6] = postemergence, 200 g/ha (glyphosate 3472 g ae/ha, glufosinate ammonium 1870 g/ha), 0% no injury, 100% plant death, mean of four replications
[7] = postemergence, 200 g/ha (glyphosate 3472 g ae/ha, glufosinate ammonium 1870 g/ha), mean of four replications
[8] = preemergence, 200 g/ha, 0% no injury, 100% plant death, mean of four replications
[9] = preemergence, 200 g/ha, mean of four replications

COC(=O)c1ccccc1S(=O)(=O)NC(=O)N(C)c1nc(C)nc(OC)n1 [Tribenuron-methyl]
pest or weed control at 200 g/ha [1, 6]: 8% | Fresh Weight [1, 7]: 90.8 g | % Visual Injury (STS ® soybeans; STS ® line 25, glyphosate 8960, tribenuron-methyl 35, rimsulfuron 35 g/ha): 87% | % Visual Injury (STS ® soybeans; STS ® line 46, glyphosate 8960, tribenuron-methyl 35, rimsulfuron 35 g/ha): 88% | % Visual Injury (STS ® soybeans; STS ®, mean, glyphosate 8960, tribenuron-methyl 35, rimsulfuron 35 g/ha): 87% | pest or weed control at 200 g/ha [2, 8]: 66% | Fresh Weight [2, 9]: 32.1 g | % Visual Injury ([3]; Wild Type line 82): 97% | % Visual Injury ([3]; Wild Type line Jack): 97% | % Visual Injury ([3]; Wild Type, mean): 97% | damage from herbicide treatment ([3]; herbicide-treated non-transgenic control soybeans, 35 g/ha): killed | damage from herbicide treatment (GAT-HRA soybeans; 35 g/ha, four replications): no significant damage | % Visual Injury (GAT-HRA soybeans; event 59, mean): 59% | % Visual Injury (GAT-HRA soybeans; event 59 line 21): 58% | % Visual Injury (GAT-HRA soybeans; event 59 line 28): 60% | % Visual Injury (GAT-HRA soybeans; event 60, mean): 55% | % Visual Injury (GAT-HRA soybeans; event 60 line 07): 46% | % Visual Injury (GAT-HRA soybeans; event 60 line 11): 71% | % Visual Injury (GAT-HRA soybeans; event 60 line 22): 45% | % Visual Injury (GAT-HRA soybeans; event 60 line 35): 49% | % Visual Injury (GAT-HRA soybeans; event 60 line 41): 38% | % Visual Injury (GAT-HRA soybeans; event 60 line 46): 49% | % Visual Injury (GAT-HRA soybeans; event 60 line 70): 40% | % Visual Injury (GAT-HRA soybeans; event 60 line 75): 69% | % Visual Injury (GAT-HRA soybeans; event 60 line 77): 56% | % Visual Injury (GAT-HRA soybeans; event 60 line 79): 69% | % Visual Injury (GAT-HRA soybeans; event 60 line 82): 61% | % Visual Injury (GAT-HRA soybeans; event 60 line 84): 71% | % Visual Injury (GAT-HRA soybeans; event 61, mean): 54% | % Visual Injury (GAT-HRA soybeans; event 61 line 02): 41% | % Visual Injury (GAT-HRA soybeans; event 61 line 02B): 40% | % Visual Injury (GAT-HRA soybeans; event 61 line 05): 55% | % Visual Injury (GAT-HRA soybeans; event 61 line 14): 65% | % Visual Injury (GAT-HRA soybeans; event 61 line 18): 69% | % Visual Injury (GAT-HRA soybeans; event 61 line 24): 63% | % Visual Injury (GAT-HRA soybeans; event 61 line 33): 80% | % Visual Injury (GAT-HRA soybeans; event 61 line 34): 76% | % Visual Injury (GAT-HRA soybeans; event 61 line 47): 36% | % Visual Injury (GAT-HRA soybeans; event 61 line 49): 54% | % Visual Injury (GAT-HRA soybeans; event 61 line 51): 60% | % Visual Injury (GAT-HRA soybeans; event 61 line 60): 45% | % Visual Injury (GAT-HRA soybeans; event 61 line 62): 43% | % Visual Injury (GAT-HRA soybeans; event 61 line 99): 34% | % Visual Injury (GAT-HRA soybeans; event 64, mean): 43% | % Visual Injury (GAT-HRA soybeans; event 64 line 41): 55% | % Visual Injury (GAT-HRA soybeans; event 64 line 47): 34% | pest or weed control at 200 g/ha [4, 6]: 100% | Fresh Weight [4, 7]: 1.8 g | pest or weed control at 200 g/ha [5, 8]: 25% | Fresh Weight [5, 9]: 46.8 g

CCOC(=O)c1ccccc1S(=O)(=O)NC(=O)Nc1nc(Cl)cc(OC)n1 [Chlorimuron-ethyl]
pest or weed control at 200 g/ha ([1]; […]): 15% | Fresh Weight [1, 7]: 95.5 g | pest or weed control at 200 g/ha [2]: 100% | Fresh Weight [2, 9]: 9.3 g | pest or weed control at 200 g/ha ([4]; […]): 93% | Fresh Weight [4, 7]: 10.1 g | damage from the treatment (GAT-HRA maize): no significant damage | damage from the treatment (control maize): severely damaged or killed | pest or weed control at 200 g/ha [5]: 10% | Fresh Weight [5, 9]: 39.4 g

CC(C)C1(C)N=C(c2ncccc2C(=O)O)NC1=O (stereo not drawn) [Imazapyr]
pest or weed control at 200 g/ha [1, 6]: 1% | Fresh Weight [1, 7]: 97.8 g | pest or weed control at 200 g/ha [2, 8]: 99% | Fresh Weight [2, 9]: 0.3 g | pest or weed control at 200 g/ha [4, 6]: 100% | Fresh Weight [4, 7]: 2.3 g | damage from the treatment (GAT-HRA maize): no significant damage | damage from the treatment (control maize): severely damaged or killed | pest or weed control at 200 g/ha [5, 8]: 30% | Fresh Weight [5, 9]: 44.2 g

COC(=O)c1ccccc1S(=O)(=O)NC(=O)Nc1nc(C)nc(OC)n1 [Metsulfuron-methyl]
pest or weed control at 200 g/ha [1, 6]: 14% | Fresh Weight [1, 7]: 75.5 g | pest or weed control at 200 g/ha [2, 8]: 100% | Fresh Weight [2, 9]: 0.0 g | pest or weed control at 200 g/ha [4, 6]: 100% | Fresh Weight [4, 7]: 1.9 g | damage from the treatment (GAT-HRA maize): no significant damage | damage from the treatment (control maize): severely damaged or killed | pest or weed control at 200 g/ha [5, 8]: 0% | Fresh Weight [5, 9]: 41.1 g

CO/N=C(/C)c1cccc(Oc2nc(OC)cc(OC)n2)c1C(=O)OC [Pyriminobac-methyl]
pest or weed control at 200 g/ha ([1]; […]): 4% | Fresh Weight [1, 7]: 95.2 g | pest or weed control at 200 g/ha [2]: 83% | Fresh Weight [2, 9]: 30.4 g | pest or weed control at 200 g/ha ([4]; […]): 93% | Fresh Weight [4, 7]: 7.6 g | pest or weed control at 200 g/ha [5]: 20% | Fresh Weight [5, 9]: 39.9 g

COc1cc(OC)nc(NC(=O)NS(=O)(=O)c2ncccc2OCC(F)(F)F)n1 [Trifloxysulfuron Na^+, Trifloxysulfuron]
% Visual Injury [1, 6]: 29% | Fresh Weight [1, 7]: 86.6 g | % Visual Injury [2, 8]: 100% | Fresh Weight [2, 9]: 0.0 g | % Visual Injury [4, 6]: 100% | Fresh Weight [4, 7]: 1.0 g | % Visual Injury [5, 8]: 0% | Fresh Weight [5, 9]: 50.8 g

COC(=O)c1ccccc1S(=O)(=O)NC(=O)Nc1nc(OC(F)F)cc(OC(F)F)n1 [Primisulfuron-methyl]
pest or weed control at 200 g/ha ([1]; […]): 5% | Fresh Weight [1, 7]: 101.0 g | pest or weed control at 200 g/ha [2]: 68% | Fresh Weight [2, 9]: 19.5 g | pest or weed control at 200 g/ha ([4]; […]): 75% | Fresh Weight [4, 7]: 16.6 g | pest or weed control at 200 g/ha [5]: 7% | Fresh Weight [5, 9]: 37.9 g

CCc1cnc(C2=NC(C)(C(C)C)C(=O)N2)c(C(=O)O)c1 (stereo not drawn) [Imazethapyr]
pest or weed control at 200 g/ha [1, 6]: 9% | Fresh Weight [1, 7]: 93.4 g | pest or weed control at 200 g/ha [2, 8]: 69% | Fresh Weight [2, 9]: 24.4 g | pest or weed control at 200 g/ha [4, 6]: 97% | Fresh Weight [4, 7]: 6.4 g | pest or weed control at 200 g/ha [5, 8]: 20% | Fresh Weight [5, 9]: 50.0 g

COc1nn(C(=O)NS(=O)(=O)c2ccccc2OC(F)(F)F)c(=O)n1C [Flucarbazone Na^+, Flucarbazone]
% Visual Injury [1, 6]: 14% | Fresh Weight [1, 7]: 86.0 g | % Visual Injury [2, 8]: 100% | Fresh Weight [2, 9]: 0.0 g | % Visual Injury [4, 6]: 100% | Fresh Weight [4, 7]: 3.1 g | % Visual Injury [5, 8]: 40% | Fresh Weight [5, 9]: 48.8 g
